Measurements reported in patent US20080119513A1, “Sulfonamide Derivative Selectively Inhibiting Mmp-13” (priority 2004, published 2008).

How the values were obtained:
Rat osteoarthritis model = assay: Inhibition of disease progression in the rat osteoarthritis model; assay type: in vivo; conditions: female SD rats, medial meniscectomy and collateral ligament transection; 10 mg/kg orally twice daily for 6 weeks
Method: Rat osteoarthritis model was prepared according to the procedure reported by Meacock et al. (J. Exp. Path. 71, 279-293, 1990), by medial meniscectomy and collateral ligament transection on the right knee of 12 weeks old female SD rats (Charles River Japan). 0.5% methylcellulose or compounds (II-3) or (III-11) (10 mg/kg) were orally administered twice daily from the following day of the surgery for 6 weeks.
On the next day of final administration, tibial plateaus were removed. The surfaces of the tibial plateau were stained with India ink (Kuretake), and then photographed using a digital camera (Nikon). The progressive level of OA lesion was scored using a photographic image thereof.

MMP-8 = molecular target: T1, MMP-8 (Homo sapiens, UniProt P22894); assay: Assay for inhibitory activities on MMPs (fluorogenic peptide substrate), MMP-8; assay type: biochemical
T1 construct: In regard to MMP-8, catalytic domain (^99Phe˜^262Gly) was amplified with PCR; His-tag; enterokinase digestion-site
T1 sequence (P22894 99-262): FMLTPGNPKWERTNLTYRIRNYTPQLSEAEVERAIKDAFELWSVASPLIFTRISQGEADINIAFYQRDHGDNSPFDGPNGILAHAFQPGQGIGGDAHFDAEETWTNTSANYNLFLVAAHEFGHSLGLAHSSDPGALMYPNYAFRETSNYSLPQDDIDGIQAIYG
Procedure, shortened: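 Human MMP-8 catalytic domain (Phe99–Gly262), His-tagged, E. coli-expressed, urea-solubilised, refolded. Fluorogenic substrate MOCAc-Pro-Leu-Gly-Leu-A2Pr(DNP)-Ala-Arg-NH2; fluorescence read with enzyme/inhibitor, substrate/inhibitor, enzyme-only and substrate-only wells. % inhibition = {1-(A−B)/(C−D)}×100; IC50 is concentration giving 50% inhibition.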

MMP-9 = MMP-9 (Homo sapiens, UniProt P14780); assay: Assay for inhibitory activities on MMPs (fluorogenic peptide substrate), MMP-9; assay type: biochemical
Sequence of MMP-9 (P14780 107-707): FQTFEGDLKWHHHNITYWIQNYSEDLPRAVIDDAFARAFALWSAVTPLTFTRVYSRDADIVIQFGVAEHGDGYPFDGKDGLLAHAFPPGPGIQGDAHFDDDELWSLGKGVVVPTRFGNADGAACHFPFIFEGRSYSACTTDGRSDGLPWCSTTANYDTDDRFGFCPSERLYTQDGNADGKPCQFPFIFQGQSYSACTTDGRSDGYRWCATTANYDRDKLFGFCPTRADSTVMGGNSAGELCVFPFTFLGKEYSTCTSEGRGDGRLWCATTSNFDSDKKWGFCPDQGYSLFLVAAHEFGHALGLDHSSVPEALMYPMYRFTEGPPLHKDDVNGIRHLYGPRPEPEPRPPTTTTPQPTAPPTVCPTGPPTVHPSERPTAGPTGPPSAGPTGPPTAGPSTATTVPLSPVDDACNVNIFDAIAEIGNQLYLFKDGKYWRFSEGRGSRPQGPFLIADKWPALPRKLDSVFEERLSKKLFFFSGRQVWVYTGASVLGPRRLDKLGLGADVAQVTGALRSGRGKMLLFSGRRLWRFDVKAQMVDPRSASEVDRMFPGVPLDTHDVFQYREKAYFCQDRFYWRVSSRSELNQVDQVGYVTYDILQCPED
Procedure, shortened: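 ProMMP-9 purified from TPA-stimulated HT1080 cells and activated with TPCK-trypsin, assayed with fluorogenic MOCAc-Pro-Leu-Gly-Leu-A2Pr(DNP)-Ala-Arg-NH2. Percent inhibition from fluorescence of reactions with and without enzyme and inhibitor; IC50 as concentration giving 50% inhibition.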

MMP-12 = molecular target: T2, MMP-12 (Homo sapiens, UniProt P39900); assay: Assay for inhibitory activities on MMPs (fluorogenic peptide substrate), MMP-12; assay type: biochemical
T2 construct: In regard to MMP-12, catalytic domain (^100Phe˜^263Gly) was amplified with RT-PCR; His-tag; enterokinase digestion-site
T2 sequence (P39900 100-263): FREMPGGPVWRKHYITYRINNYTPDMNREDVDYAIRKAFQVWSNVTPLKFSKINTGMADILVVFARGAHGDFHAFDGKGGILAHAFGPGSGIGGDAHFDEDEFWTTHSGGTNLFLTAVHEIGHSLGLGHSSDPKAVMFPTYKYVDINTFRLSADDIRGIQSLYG
Procedure, shortened: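 Refolded His-tagged human MMP-12 catalytic domain (Phe100–Gly263) expressed in E. coli, assayed with fluorogenic substrate MOCAc-Pro-Leu-Gly-Leu-A2Pr(DNP)-Ala-Arg-NH2. Percent inhibition calculated from fluorescence with and without enzyme and inhibitor, corrected for inhibitor-only and substrate-only blanks; IC50 is concentration giving 50% inhibition.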

MMP-2 = molecular target: T3, MMP-2 (Homo sapiens, UniProt P08253); assay: Assay for inhibitory activities on MMPs (fluorogenic peptide substrate), MMP-2; assay type: biochemical
T3 sequence (P08253 110-660): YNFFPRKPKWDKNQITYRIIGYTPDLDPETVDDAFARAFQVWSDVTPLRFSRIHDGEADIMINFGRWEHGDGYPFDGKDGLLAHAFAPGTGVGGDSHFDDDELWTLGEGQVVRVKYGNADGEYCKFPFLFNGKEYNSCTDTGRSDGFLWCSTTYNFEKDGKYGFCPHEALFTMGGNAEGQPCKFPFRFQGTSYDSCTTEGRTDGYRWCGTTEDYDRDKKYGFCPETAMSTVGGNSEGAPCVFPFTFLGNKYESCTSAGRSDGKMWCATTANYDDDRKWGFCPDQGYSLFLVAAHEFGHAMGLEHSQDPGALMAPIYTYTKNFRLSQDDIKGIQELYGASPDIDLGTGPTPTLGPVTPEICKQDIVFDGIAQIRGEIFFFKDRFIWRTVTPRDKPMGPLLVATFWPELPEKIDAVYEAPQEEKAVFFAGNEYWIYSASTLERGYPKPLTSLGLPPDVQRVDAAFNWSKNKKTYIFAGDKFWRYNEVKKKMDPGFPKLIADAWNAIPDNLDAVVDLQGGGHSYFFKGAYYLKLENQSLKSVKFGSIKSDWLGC
Procedure, shortened: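 Human MMP-2 activity measured with fluorogenic MOCAc-Pro-Leu-Gly-Leu-A2Pr(DNP)-Ala-Arg-NH2 substrate. Percent inhibition derived from fluorescence with and without enzyme and inhibitor, corrected for substrate and inhibitor background. IC50 taken as concentration giving 50% inhibition.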

MMP-13 = molecular target: T4, MMP-13 (Homo sapiens, UniProt P45452); assay: Assay for inhibitory activities on MMPs (fluorogenic peptide substrate), MMP-13; assay type: biochemical
T4 construct: catalytic domain (^104Tyr˜^267Gly) was amplified with RT-PCR; His-tag; enterokinase digestion-site
Procedure, shortened: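 Catalytic domain cloned from IL-1/TNF-stimulated SW1353 cells, His-tagged and expressed in E. coli, then refolded from urea. Activity read by fluorescence on the MOCAc peptide substrate. IC50 taken from % inhibition = {1-(A-B)/(C-D)}×100, with blanks lacking enzyme and/or inhibitor.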

Row | Structure (SMILES) | IC50 (MMP-8) [nM] | IC50 (MMP-9) [nM] | IC50 (MMP-12) [nM] | IC50 (MMP-2) [nM] | IC50 (MMP-13) [nM] | inhibitory activities (progressive level of OA lesion, scored) (Rat osteoarthritis model) [%]
1 | O=C(O)[C@@H](Cc1ccccc1)NS(=O)(=O)c1ccc(-c2ccc(C#Cc3ccc4ccccc4c3)cc2)cc1 [III-11] | 128 | > 10000 | 2000 | 163 |  | 77.2
2 | COc1ccc2cc(C#Cc3ccc(-c4ccc(S(=O)(=O)N[C@H](C)C(=O)O)cc4)cc3)ccc2c1 [III-17] | > 10000 | > 10000 | > 10000 | > 10000 | 5.6 | 
3 | CC(C)(C)[C@H](NS(=O)(=O)c1ccc(-c2ccc(NC(=O)c3cc4ccccc4s3)cc2)cc1)C(=O)O [VI-49] | 158 | > 10000 | 98.8 | 241 | 10 | 
4 | COc1ccc2cc(C#Cc3ccc(-c4ccc(S(=O)(=O)N[C@@H](C(=O)O)c5ccc(O)cc5)cc4)cc3)ccc2c1 [III-51] | 508 | > 10000 | 536 | > 10000 | 128 | 
5 | CC(C)[C@@H](NS(=O)(=O)c1ccc(-c2ccc(NC(=O)c3ccc4ccccc4c3)cc2)cc1)C(=O)O [VI-39] | 5400 | > 10000 | > 10000 | 664 | 81.1 | 
6 | C[C@H](NS(=O)(=O)c1ccc(-c2ccc(C#Cc3ccc4ccccc4c3)cc2)cc1)C(=O)O [III-3] | 56.3 | > 10000 | 70.9 | > 10000 | 7.86 | 

Continued, in another order:

Row | IC50 (MMP-8) [nM] | IC50 (MMP-9) [nM] | IC50 (MMP-12) [nM] | IC50 (MMP-2) [nM] | IC50 (MMP-13) [nM] | Structure (SMILES) | inhibitory activities (progressive level of OA lesion, scored) (Rat osteoarthritis model) [%]
7 | 261 | > 10000 | 363 | 499 | 15.1 | CC(C)C[C@@H](NS(=O)(=O)c1ccc(-c2ccc(C#Cc3ccc4ccccc4c3)cc2)cc1)C(=O)O [III-6] | 
8 | > 10000 | > 10000 | > 10000 | > 10000 | 178 | CC(C)C[C@@H](NS(=O)(=O)c1ccc(-c2ccc(NC(=O)c3ccc4ccccc4c3)cc2)cc1)C(=O)O [VI-41] | 
9 | > 10000 | > 10000 | > 10000 | > 10000 | 61.3 | COc1ccc2cc(C(=O)Nc3ccc(-c4ccc(S(=O)(=O)N[C@H](Cc5ccccc5)C(=O)O)cc4)cc3)ccc2c1 [VI-45] | 
10 | 154 | > 10000 | 128 | 167 | 15 | COc1ccc2cc(C#Cc3ccc(-c4ccc(S(=O)(=O)N[C@@H](C(=O)O)C(C)C)cc4)cc3)ccc2c1 [III-20] | 
11 | 25.9 | > 10000 | 29.7 | 374 | 2.86 | CSCC[C@H](NS(=O)(=O)c1ccc(-c2ccc(C#Cc3ccc4ccccc4c3)cc2)cc1)C(=O)O [III-10] | 
12 | 1100 | > 10000 | 1020 | 563 | 77.1 | COc1cccc(C(=O)Nc2ccc(-c3ccc(S(=O)(=O)N[C@H](C)C(=O)O)cc3)cc2)c1 [VI-16] | 
13 | 5710 | > 10000 | 9680 | > 10000 | 55.7 | COc1ccc2cc(C#Cc3ccc(-c4ccc(S(=O)(=O)N[C@H](CC(C)C)C(=O)O)cc4)cc3)ccc2c1 [III-22] | 
